# Key:
# [1] = system: rat; parameters: method as in May et al, 2011; Fielden et al, 2015; settings: ref May et al, 2011; Fielden et al, 2015; cited from earlier work
# [2] = system: CatD; parameters: method as in Fielden et al, 2015; settings: ref Fielden et al, 2015; cited from earlier work
# [3] = system: APP‐transgenic mice; parameters: method as in Beckmann et al, 2016; Villarreal et al, 2017; settings: ref Beckmann et al, 2016; Villarreal et al, 2017; cited from earlier work
# [4] = system: C57/BL6 mice; experiment: Hair depigmentation study, 8 weeks dosing; type: in vivo, mouse; settings: for % Aβ40 in brain relative to vehicle alone: steady state
# Description: Compounds were either mixed in feed or given as a suspension orally. […] Vehicle or compounds were given orally in a volume of 10 ml/kg once daily (mornings) for 8 weeks. Vehicle: 0.1% Tween‐80 in 0.5% methylcellulose in water. […] The vehicle group was treated with food pellets containing no compound. The β1 antibody was dosed 0.5 mg/kg body weight, once weekly intraperitoneally, diluted in 90 nM NaCl, 50 nM Tris pH 7.1.
smiles,measurement,setting,value
CC1(C#Cc2cnc3c(c2)[C@]2(COC(N)=N2)c2cc(-c4cccnc4F)ccc2O3)COC1 [AMG‐8718],retinal pathology in the rat,[1],retinal degeneration
same,CatD selectivity in vitro,[2],"> 3,000 fold"
C[C@@]1(c2cc(-c3cncnc3)c(F)cc2F)CCSC(N)=N1 [LY2811376],retinal pathology in the rat,[1],retinal degeneration
Cc1cc(C#N)cnc1C(=O)Nc1ccc(F)c([C@]2(C)CO[C@@](C)(C(F)(F)F)C(N)=N2)c1 [NB‐360],CMH events,[3],No CMH events were observed
same,start of hair depigmentation,[4]; C57/BL6 mice,2–3 weeks
same,% Aβ40 in brain relative to vehicle alone,[4]; Dose 9 mg/kg,66%
same,% Aβ40 in brain relative to vehicle alone,[4]; Dose 45 mg/kg,32%
same,hair depigmentation / change in hair color,"[4]; male C57/BL6 mice, 8 weeks oral once daily",obvious hair depigmentation in all mice
CN1C(=N)N[C@](C)(c2cc(NC(=O)c3ccc(F)cn3)ccc2F)CS1(=O)=O [verubecestat],CMH events,[3],No CMH events were observed

# Reference: publication PMC6220303 (EMBO Molecular Medicine, 2018)
